Key:
P388/ADR [1] = experiment: Inhibition of growth in vitro of P388/ADR cells; type: cell-based, mouse; conditions: actively growing tumor cells
Procedure: (§1) The analogues are assayed for in vitro growth inhibitory activity against several experimental tumor lines including human and murine leukemia, mouse melanoma, and human lymphoblastic leukemia.

B16 = experiment: Inhibition of growth in vitro of B16 cells; type: cell-based, mouse; conditions: actively growing tumor cells
Procedure: as §1

P388/ADR [2] = experiment: Antitumor activity against ip implanted P388/ADR in CDF1 mice; type: in vivo; set-up: OD (optimal dose of drugs): unit not given here; conditions: for % ILS (percent increase in median life time vs controls) / (surv) number of 60 days survivors/number of animals tested / MST (median survival time): ip qd 1-9, at optimal dose; for OD (optimal dose of drugs): treated ip qd 1-9
Procedure: ^e Optimal dose of drugs.
^ f Median survival time of tumor bearing mice.
^g Percent increase in median life time in days of drugtreated dying
animals vs those of controls; (survivors), number of 60 days
survivors/number of animals tested in the group.
In order to examine a broader spectrum of activity, these optical isomers are tested in two other mouse leukemia cell lines in vivo. One cell line, P388/ADR, is a derivative of the above P388/S made resistant to intercalating agents like […].

[3] = test system: DNA synthesis in L1210 cells; experiment: Inhibition of DNA synthesis in L1210 ([methyl-14C]thymidine incorporation); type: cell-based, Murine; conditions: [methyl-14C]thymidine incorporation into DNA; read-out: inhibition of synthesis of nucleic acids in L1210 IC50 DNA
Procedure: (§2) ^a Drug concentration (micromolor) for 50% reduction of incorporation
(§3) of [methyl^14 C]thymidine into DNA^b and [5^3 H] uridine into
(§4) RNA^c from the rate of incorporation of the same radionucleotides in
(§5) nondrug treated L1210 cells growing actively in vitro.
(§6) Inhibition of nucleic acid synthesis in L1210 lymphoid leukemia cells by (±)-EPA and it optical isomers are assayed. […] To achieve this, a digestion of the nucleic acid pellet with DNase-free RNase enzyme, prior to final pelleting of the DNA precipitate is made to ensure that no more than ±8% contamination from […] into DNA takes place, and for this the necessary correction is made in the data reported in Table V.

[4] = test system: RNA synthesis in L1210 cells; experiment: Inhibition of RNA synthesis in L1210 ([5-3H]uridine incorporation); type: cell-based, Murine; conditions: [5-3H]uridine incorporation into RNA; read-out: inhibition of synthesis of nucleic acids in L1210 IC50 RNA
Procedure: as §2, §3, §4, §5, §6

L1210 cells = experiment: Inhibition of growth of L1210 cells in culture; type: cell-based, Murine
Procedure: as §1

leukemia L1210 = experiment: Activity in mice bearing leukemia L1210; type: in vivo; conditions: L1210 ip in CDF1 mouse; for OD (optimal dose): ip days 1, 5, 9; for % ILS (percent increase in median life span) / (surv) number of over 60 days survivors/number of animals tested: ip days 1, 5, 9, at optimal dose
From the text: ^e OD, optimal dose of drugs in milligrams/killograms per injection,
administered ip on days 1, 5, and 9, following ip inoculation with
^f % ILS, percent increase in median life span in days, of the
tumorbearing drugtreated dying animals when compared with similar tumor
bearing mice but not treated with drugs. (surv), number of over 60 days
survivors/number of animals tested.

B16 melanoma [5] = experiment: B16 melanoma implanted sc, drug iv (sc-iv) in BDF1 mice; type: in vivo; conditions: B16 sc implanted; for % ILS / (surv) sixty day survivors/number of mice treated / MST (median survival time): drug iv day 1; for OD (optimal dose): drug iv day 1, 0.1 mL vehicle
Procedure: (§7) Subcutaneously implanted B16 melanoma in BDF1 mice is a slow growing tumor, but its rate of growth becomes faster when it is implanted ip. […] This is not consistent with data in other tumors; however, in this connection it should be pointed out that the combined effects of drugs (or enantiomers in this case) can be manifested in several ways, i.e., they can be synergistic, additive, or subtractive.
(§8) 0.2 ml of brei (tumor weight/Hank's balanced salt solution, (1:5) of B16
(§9) implanted sc or ip into groups of nine BDF1 mice on day 0. Drugs
(§10) administered iv on day 1 or ip on days 1, 5, and 9, following tumor
(§11) administered ip on days 1, 5, and 9. OD, optimal dose in
(§12) milligrams/milliliter of vehicle, and administered iv or ip in 0.1 mL of
(§13) vehicle (5% v/v Me2 SOsaline). MST, median survival times in days of
(§14) tumor bearing and nondrug treated (control) or drugtreated mice. % ILS,
(§15) percent increase in life span of drug treated groups over the control
(§16) group of test animals, excluding survivors. (surv), number of sixty day
(§17) survivors/number of mice treated with drug.

B16 melanoma [6] = experiment: B16 melanoma implanted ip, drug ip (ip-ip) in BDF1 mice; type: in vivo; conditions: B16 ip implanted; for % ILS / (surv) sixty day survivors/number of mice treated / MST (median survival time): drug ip days 1, 5, 9; for OD (optimal dose): drug ip days 1, 5, 9, 0.1 mL vehicle
Procedure: as §7, §8, §9, §10, §11, §12, §13, §14, §15, §16, §17

C26 colon carcinoma = C26 colon carcinoma implanted in CDF1 mice, drug ip; type: in vivo; conditions: for % ILS / (surv) sixty day survivors/number of mice treated / MST: drug ip days 1, 5, 9; for OD (optimal dose): drug ip days 1, 5, 9, 0.1 mL vehicle
Procedure: implantation. Primary colon C26 carcinoma (tripan blue excluding, 2.5
× 10^5 cells/mouse) implanted in CDF1 mice on day 0; drug
as §11, §12, §13, §14, §15, §16, §17

CCRF-CEM [7] = conditions: cited from earlier work
[8] = test system: P388/S lymphocytic leukemia; conditions: cited from earlier work
CCRF-CEM [9] = experiment: In vitro growth inhibition of CCRF-CEM human lymphoblastic leukemia cells; type: cell-based; conditions: purer (90%) form of isomers
Procedure: as §1

SMILES	inhibition of growth ID50 P388/ADR (P388/ADR [1])	inhibition of growth ID50 B16 (B16)	% ILS (percent increase in median life time vs controls) (P388/ADR [2])	(surv) number of 60 days survivors/number of animals tested (P388/ADR [2])	MST (median survival time) (P388/ADR [2])	OD (optimal dose of drugs) (P388/ADR [2])	inhibition of growth of L1210 cells in culture; ID50 (L1210 cells)	OD (optimal dose) (leukemia L1210)	% ILS (percent increase in median life span) (leukemia L1210)	(surv) number of over 60 days survivors/number of animals tested (leukemia L1210)	% ILS (B16 melanoma [5])	(surv) sixty day survivors/number of mice treated (B16 melanoma [5])	MST (median survival time) (B16 melanoma [5])	OD (optimal dose) (B16 melanoma [5])	% ILS (B16 melanoma [6])	OD (optimal dose) (B16 melanoma [6])	% ILS (C26 colon carcinoma)	(surv) sixty day survivors/number of mice treated (C26 colon carcinoma)	MST (C26 colon carcinoma)	OD (optimal dose) (C26 colon carcinoma)	further results
Cc1c2oc3c(C)c(OCC4CO4)cc(C(=O)NC4C(=O)NC(C(C)C)C(=O)N5CCCC5C(=O)N(C)CC(=O)N(C)C(C(C)C)C(=O)OC4C)c3nc-2c(C(=O)NC2C(=O)NC(C(C)C)C(=O)N3CCCC3C(=O)N(C)CC(=O)N(C)C(C(C)C)C(=O)OC2C)c(N)c1=O (racemic) [3b[(±)-EPA]] [7-(2,3-epoxypropoxy) actinomycin D]	80 ± 11 nM	2.5 ± 0.6 nM	344%	4/10	40 days	0.65	28.7 ± 8.7 nM	0.05 milligrams/killograms per inje	186%	2/9	64%	0/9	54.0 days	1.0 milligrams/milliliter of vehic	105%	0.30 milligrams/milliliter of vehic	64%	0/10	36.0 days	0.60 milligrams/milliliter of vehic	% ILS (percent increase in median life time vs controls) (P388/ADR [2]; listed as racemic EPA): 344%; (surv) number of 60 days survivors/number of animals tested (P388/ADR [2]; listed as racemic EPA): four out of 10; IC50 [3]: 80 ± 19 nM; IC50 [4]: 24 ± 4 nM; (surv) sixty day survivors/number of mice treated (B16 melanoma [6]): 2/9; antitumor activity in CCRF-CEM cells in vitro (CCRF-CEM [7]): high antitumor activity; antitumor activity in P388/S mouse leukemia in vivo [8]: high antitumor activity
Cc1c2oc3c(C)c(OCC4CO4)cc(C(=O)NC4C(=O)NC(C(C)C)C(=O)N5CCCC5C(=O)N(C)CC(=O)N(C)C(C(C)C)C(=O)OC4C)c3nc-2c(C(=O)NC2C(=O)NC(C(C)C)C(=O)N3CCCC3C(=O)N(C)CC(=O)N(C)C(C(C)C)C(=O)OC2C)c(N)c1=O [(R)-(+)-EPA, 7-(2,3-epoxypropoxy) actinomycin D]	40 ± 12 nM	2.0 ± 0.4 nM	400%	4/10	45 days	0.30	23.1 ± 7.7 nM	0.05 milligrams/killograms per inje	199%	3/9	70%	1/9	56.0 days	1.0 milligrams/milliliter of vehic	105%	0.30 milligrams/milliliter of vehic	89%	2/10	41.5 days	0.60 milligrams/milliliter of vehic	(surv) sixty day survivors/number of mice treated (B16 melanoma [6]): 2/9; MST (median survival time) (B16 melanoma [6]): 39.0 days; 50% growth inhibitory dose (ID50) (CCRF-CEM [9]; listed as R-(+) isomer): 2.0 nM
Cc1c2oc3c(C)c(OCC4CO4)cc(C(=O)NC4C(=O)NC(C(C)C)C(=O)N5CCCC5C(=O)N(C)CC(=O)N(C)C(C(C)C)C(=O)OC4C)c3nc-2c(C(=O)NC2C(=O)NC(C(C)C)C(=O)N3CCCC3C(=O)N(C)CC(=O)N(C)C(C(C)C)C(=O)OC2C)c(N)c1=O [(S)-(-)-EPA, 7-(2,3-epoxypropoxy) actinomycin D]	135 ± 12 nM	3.5 ± 1.0 nM	377%	5/10	43 days	0.80	56.8 ± 8.8 nM	0.05 milligrams/killograms per inje	143%	1/9	60%		53.0 days	1.0 milligrams/milliliter of vehic	74%	0.30 milligrams/milliliter of vehic	64%	1/10	36.0 days	0.90 milligrams/milliliter of vehic	MST (median survival time) (B16 melanoma [6]): 33.0 days; 50% growth inhibitory dose (ID50) (CCRF-CEM [9]; listed as S-(-) isomer): 3.5 nM
COc1cccc2c1C(=O)c1c(O)c3c(c(O)c1C2=O)C[C@@](O)(C(=O)CO)C[C@@H]3O[C@H]1C[C@H](N)[C@H](O)[C@H](C)O1 [adriamycin, reference compound]											79%	1/9	59.0 days	5.0 milligrams/milliliter of vehic	224%	5.0 milligrams/milliliter of vehic	118%	3/10	48.0 days	2.50 milligrams/milliliter of vehic	(surv) sixty day survivors/number of mice treated (B16 melanoma [6]): 7/9; MST (median survival time) (B16 melanoma [6]): 60.0 days
CO[C@@]12[C@H](COC(N)=O)C3=C(C(=O)C(C)=C(N)C3=O)N1C[C@@H]1N[C@@H]12 [mitomycin, mitomycin C, reference compound]			400%	5/10	45 days	1.0															

From US5155209A, “R-(+) enantiomeric form of 7-(2, 3-epoxypropoxy) actinomycin D” (priority 1991, dated 1992)
